Test results published in the supplement of paper PMC4862054.

How the values were obtained:
Settings in all cases: incubation time: 72 h
MDA-MB-468 [1] = experiment: normalised response (% of control), CellTox Green; higher = less cell death (100 = DMSO, 0 = benzethonium chloride kill control)
Summary of the method: (§1)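 Compound was dispensed into 384-well plates at 5 concentrations in 10-fold steps spanning a 10,000-fold range specific to that compound. Breast cancer cell lines were added as 20 µl suspension and left for 72 h before CellTox Green fluorescence (485/520 nm) and then CellTiter-Glo luminescence, read after 10 min at room temperature. Each reported value is the normalised signal at one concentration, with 0.1 % DMSO set at 100 and a positive kill control at 0 on each plate.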

MDA-MB-453 [2] = experiment: as above
Summary of the method: as §1

MDA-MB-231 [3] = experiment: as above
Summary of the method: as §1

MCF-10A [4] = experiment: as above
Summary of the method: as §1

HCC1143 [5] = experiment: as above
Summary of the method: as §1

HCC1599 [6] = experiment: as above
Summary of the method: as §1

CAL-148 [7] = experiment: as above
Summary of the method: as §1

HDQ-P1 [8] = experiment: as above
Summary of the method: as §1

BT-549 [9] = experiment: as above
Summary of the method: as §1

MDA-MB-436 [10] = experiment: as above
Summary of the method: as §1

HCC1937 [11] = experiment: as above
Summary of the method: as §1

DU-4475 [12] = experiment: as above
Summary of the method: as §1

BT-474 [13] = experiment: as above
Summary of the method: as §1

CAL-51 [14] = experiment: as above
Summary of the method: as §1

MFM-223 [15] = experiment: as above
Summary of the method: as §1

CAL-120 [16] = experiment: as above
Summary of the method: as §1

Hs578T [17] = experiment: as above
Summary of the method: as §1

CAL-85-1 [18] = experiment: as above
Summary of the method: as §1

MDA-MB-468 [19] = experiment: normalised response (% of control), CellTiter-Glo; higher = more viable cells (100 = DMSO, 0 = benzethonium chloride kill control)
Summary of the method: as §1

MDA-MB-453 [20] = experiment: as above
Summary of the method: as §1

MDA-MB-231 [21] = experiment: as above
Summary of the method: as §1

MCF-10A [22] = experiment: as above
Summary of the method: as §1

HCC1143 [23] = experiment: as above
Summary of the method: as §1

HCC1599 [24] = experiment: as above
Summary of the method: as §1

CAL-148 [25] = experiment: as above
Summary of the method: as §1

HDQ-P1 [26] = experiment: as above
Summary of the method: as §1

BT-549 [27] = experiment: as above
Summary of the method: as §1

MDA-MB-436 [28] = experiment: as above
Summary of the method: as §1

HCC1937 [29] = experiment: as above
Summary of the method: as §1

DU-4475 [30] = experiment: as above
Summary of the method: as §1

BT-474 [31] = experiment: as above
Summary of the method: as §1

CAL-51 [32] = experiment: as above
Summary of the method: as §1

MFM-223 [33] = experiment: as above
Summary of the method: as §1

CAL-120 [34] = experiment: as above
Summary of the method: as §1

SK-BR-3 = experiment: as above
Summary of the method: as §1

Hs578T [35] = experiment: as above
Summary of the method: as §1

CAL-85-1 [36] = experiment: as above
Summary of the method: as §1

SMILES: NS(=O)(=O)OC[C@@H]1C[C@@H](n2ccc3c(N[C@H]4CCc5ccccc54)ncnc32)C[C@@H]1O [Pevonedistat] (100 nM)
- normalised response (MDA-MB-468 [1]): 128%
- normalised response (MDA-MB-453 [2]): 112%
- normalised response (MDA-MB-231 [3]): 119%
- normalised response (MCF-10A [4]): 108%
- normalised response (HCC1143 [5]): 120%
- normalised response (HCC1599 [6]): 104%
- normalised response (CAL-148 [7]): 94.7%
- normalised response (HDQ-P1 [8]): 99.8%
- normalised response (BT-549 [9]): 106%
- normalised response (MDA-MB-436 [10]): 102%
- normalised response (HCC1937 [11]): 119%
- normalised response (DU-4475 [12]): 97.8%
- normalised response (BT-474 [13]): 102%
- normalised response (CAL-51 [14]): 36.4%
- normalised response (MFM-223 [15]): 65.2%
- normalised response (CAL-120 [16]): 102%
- normalised response (Hs578T [17]): 107%
- normalised response (CAL-85-1 [18]): 81.5%
- normalised response (MDA-MB-468 [19]): 56.2%
- normalised response (MDA-MB-453 [20]): 88.9%
- normalised response (MDA-MB-231 [21]): 118%
- normalised response (MCF-10A [22]): 113%
- normalised response (HCC1143 [23]): 90.1%
- normalised response (HCC1599 [24]): 75.6%
- normalised response (CAL-148 [25]): 120%
- normalised response (HDQ-P1 [26]): 102%
- normalised response (BT-549 [27]): 73.2%
- normalised response (MDA-MB-436 [28]): 82.9%
- normalised response (HCC1937 [29]): 96.3%
- normalised response (DU-4475 [30]): 68.8%
- normalised response (BT-474 [31]): 114%
- normalised response (CAL-51 [32]): 51.5%
- normalised response (MFM-223 [33]): 79.1%
- normalised response (CAL-120 [34]): 91.1%
- normalised response (SK-BR-3): 35.6%
- normalised response (Hs578T [35]): 98.7%
- normalised response (CAL-85-1 [36]): 77.8%

SMILES: CN(C)C[C@@H]1CCn2cc(c3ccccc32)C2=C(C(=O)NC2=O)c2cn(c3ccccc23)CCO1 [Ruboxistaurin] (100 nM)
- normalised response (MDA-MB-468 [1]): 141%
- normalised response (MDA-MB-453 [2]): 92.7%
- normalised response (MDA-MB-231 [3]): 112%
- normalised response (MCF-10A [4]): 95.6%
- normalised response (HCC1143 [5]): 99.5%
- normalised response (HCC1599 [6]): 96.2%
- normalised response (CAL-148 [7]): 102%
- normalised response (HDQ-P1 [8]): 102%
- normalised response (BT-549 [9]): 109%
- normalised response (MDA-MB-436 [10]): 79.8%
- normalised response (HCC1937 [11]): 90%
- normalised response (DU-4475 [12]): 99.3%
- normalised response (BT-474 [13]): 98.9%
- normalised response (CAL-51 [14]): 101%
- normalised response (MFM-223 [15]): 103%
- normalised response (CAL-120 [16]): 103%
- normalised response (Hs578T [17]): 66.2%
- normalised response (CAL-85-1 [18]): 109%
- normalised response (MDA-MB-468 [19]): 93.8%
- normalised response (MDA-MB-453 [20]): 105%
- normalised response (MDA-MB-231 [21]): 96.1%
- normalised response (MCF-10A [22]): 89.3%
- normalised response (HCC1143 [23]): 94.7%
- normalised response (HCC1599 [24]): 105%
- normalised response (CAL-148 [25]): 94.5%
- normalised response (HDQ-P1 [26]): 99.3%
- normalised response (BT-549 [27]): 102%
- normalised response (MDA-MB-436 [28]): 98%
- normalised response (HCC1937 [29]): 95.1%
- normalised response (DU-4475 [30]): 95.5%
- normalised response (BT-474 [31]): 99.5%
- normalised response (CAL-51 [32]): 105%
- normalised response (MFM-223 [33]): 99.8%
- normalised response (CAL-120 [34]): 92.7%
- normalised response (SK-BR-3): 93%
- normalised response (Hs578T [35]): 98%
- normalised response (CAL-85-1 [36]): 96.6%

SMILES: O=C1NC(=O)[C@@H](c2cn3c4c(cccc24)CCC3)[C@@H]1c1c[nH]c2ccccc12 [Tivantinib] (10 nM)
- normalised response (MDA-MB-468 [1]): 131%
- normalised response (MDA-MB-453 [2]): 106%
- normalised response (MDA-MB-231 [3]): 105%
- normalised response (MCF-10A [4]): 84.5%
- normalised response (HCC1143 [5]): 105%
- normalised response (HCC1599 [6]): 103%
- normalised response (CAL-148 [7]): 78.8%
- normalised response (HDQ-P1 [8]): 109%
- normalised response (BT-549 [9]): 104%
- normalised response (MDA-MB-436 [10]): 90.1%
- normalised response (HCC1937 [11]): 106%
- normalised response (DU-4475 [12]): 100%
- normalised response (BT-474 [13]): 97.8%
- normalised response (CAL-51 [14]): 102%
- normalised response (MFM-223 [15]): 98.9%
- normalised response (CAL-120 [16]): 103%
- normalised response (Hs578T [17]): 110%
- normalised response (CAL-85-1 [18]): 102%
- normalised response (MDA-MB-468 [19]): 99.6%
- normalised response (MDA-MB-453 [20]): 85%
- normalised response (MDA-MB-231 [21]): 103%
- normalised response (MCF-10A [22]): 103%
- normalised response (HCC1143 [23]): 97.8%
- normalised response (HCC1599 [24]): 105%
- normalised response (CAL-148 [25]): 98.4%
- normalised response (HDQ-P1 [26]): 100%
- normalised response (BT-549 [27]): 98.3%
- normalised response (MDA-MB-436 [28]): 102%
- normalised response (HCC1937 [29]): 97.6%
- normalised response (DU-4475 [30]): 104%
- normalised response (BT-474 [31]): 104%
- normalised response (CAL-51 [32]): 106%
- normalised response (MFM-223 [33]): 99.6%
- normalised response (CAL-120 [34]): 96.3%
- normalised response (SK-BR-3): 99.4%
- normalised response (Hs578T [35]): 92.6%
- normalised response (CAL-85-1 [36]): 99.2%

SMILES: CC[C@]1(O)C[C@H]2CN(CCc3c([nH]c4ccccc34)[C@@](C(=O)OC)(c3cc4c(cc3OC)N(C=O)[C@H]3[C@@](O)(C(=O)OC)[C@H](OC(C)=O)[C@]5(CC)C=CCN6CC[C@]43[C@@H]65)C2)C1 [Vincristine] (10 nM)
- normalised response (MDA-MB-468 [1]): -5.1%
- normalised response (MDA-MB-453 [2]): 87.5%
- normalised response (MDA-MB-231 [3]): 53.4%
- normalised response (MCF-10A [4]): 51.6%
- normalised response (HCC1143 [5]): 98.8%
- normalised response (HCC1599 [6]): 90.7%
- normalised response (CAL-148 [7]): 71.5%
- normalised response (HDQ-P1 [8]): 44.8%
- normalised response (BT-549 [9]): 77.1%
- normalised response (MDA-MB-436 [10]): 56%
- normalised response (HCC1937 [11]): 93.3%
- normalised response (DU-4475 [12]): 98.7%
- normalised response (BT-474 [13]): 76.7%
- normalised response (CAL-51 [14]): 73.2%
- normalised response (MFM-223 [15]): 94.7%
- normalised response (CAL-120 [16]): 93.9%
- normalised response (Hs578T [17]): 88.5%
- normalised response (CAL-85-1 [18]): 45%
- normalised response (MDA-MB-468 [19]): 20.9%
- normalised response (MDA-MB-453 [20]): 70.6%
- normalised response (MDA-MB-231 [21]): 76.7%
- normalised response (MCF-10A [22]): 60.5%
- normalised response (HCC1143 [23]): 53.5%
- normalised response (HCC1599 [24]): 63.5%
- normalised response (CAL-148 [25]): 64.6%
- normalised response (HDQ-P1 [26]): 71%
- normalised response (BT-549 [27]): 38.2%
- normalised response (MDA-MB-436 [28]): 70.8%
- normalised response (HCC1937 [29]): 75.7%
- normalised response (DU-4475 [30]): 86.3%
- normalised response (BT-474 [31]): 71%
- normalised response (CAL-51 [32]): 86.8%
- normalised response (MFM-223 [33]): 90.8%
- normalised response (CAL-120 [34]): 66.8%
- normalised response (SK-BR-3): 17.8%
- normalised response (Hs578T [35]): 82.6%
- normalised response (CAL-85-1 [36]): 30.6%
